Data on 29 molecules can be found in US9187484B2 (Southern Research Institute, priority 2012, dated 2015).

The target of the experiment is T1, LRRK2 (G2019S) (Homo sapiens, UniProt Q5S007, G2019S).
T1 construct: Recombinant GST-LRRK2 (delta970), purified from baculovirus infected insect cells (SF9); GST (N); host or cells: baculovirus infected insect cells (SF9)
Description: LRRK2 inhibition, radiometric kinase assay with recombinant GST-LRRK2 (delta970) and peptide substrate. Type of experiment: biochemical. Particulars: GST-LRRK2 (delta970) G2019S 30 nM, ATP ~52 μM (Km), 30 min at 30° C. The protocol: Compounds were assessed for inhibition of LRRK2 inhibition using the following procedure.
Recombinant GST-LRRK2 (delta970), purified from baculovirus infected insect cells (SF9), at least 90% pure and either wild-type sequence or bearing the pathogenic G2019S mutation, was combined into a kinase buffer at 30 nM concentration. Kinase buffer consists of 50 mM Tris HCl pH 7.4, 1 mM EDTA, and 50 μM peptide substrate (amino acid sequence […]). Experimental compounds or control (no compound) were added at desired concentrations in DMSO and water, where final concentration of DMSO in kinase reactions was 0.1% for all drug concentrations. Activation buffer that consists of a final concentration in the reactions of 10 mM MgCl2 and ATP (˜92 μM for WT-LRRK2 reactions and ˜52 μM for G2019S-LRRK2, which represent respective Km ATP concentrations) were added to each reaction, in addition to 0.5 μCi of gamma-32-P-dATP per reaction. Reactions were incubated at 1400 RPM at 30° C. for 30 min. and then spotted in triplicate directly onto a slot-blot apparatus fitted with phospho-cellulose paper and allowed to dry. Each slot was then washed with 10 mM phosphoric acid buffer until beta-radiation could not be detected in eluted wash buffer, usually ˜1 mL per slot. Paper within each slot were excised and radiation measured by liquid scintillation.

T1 sequence (Q5S007 970-2527 G2019S limits assumed): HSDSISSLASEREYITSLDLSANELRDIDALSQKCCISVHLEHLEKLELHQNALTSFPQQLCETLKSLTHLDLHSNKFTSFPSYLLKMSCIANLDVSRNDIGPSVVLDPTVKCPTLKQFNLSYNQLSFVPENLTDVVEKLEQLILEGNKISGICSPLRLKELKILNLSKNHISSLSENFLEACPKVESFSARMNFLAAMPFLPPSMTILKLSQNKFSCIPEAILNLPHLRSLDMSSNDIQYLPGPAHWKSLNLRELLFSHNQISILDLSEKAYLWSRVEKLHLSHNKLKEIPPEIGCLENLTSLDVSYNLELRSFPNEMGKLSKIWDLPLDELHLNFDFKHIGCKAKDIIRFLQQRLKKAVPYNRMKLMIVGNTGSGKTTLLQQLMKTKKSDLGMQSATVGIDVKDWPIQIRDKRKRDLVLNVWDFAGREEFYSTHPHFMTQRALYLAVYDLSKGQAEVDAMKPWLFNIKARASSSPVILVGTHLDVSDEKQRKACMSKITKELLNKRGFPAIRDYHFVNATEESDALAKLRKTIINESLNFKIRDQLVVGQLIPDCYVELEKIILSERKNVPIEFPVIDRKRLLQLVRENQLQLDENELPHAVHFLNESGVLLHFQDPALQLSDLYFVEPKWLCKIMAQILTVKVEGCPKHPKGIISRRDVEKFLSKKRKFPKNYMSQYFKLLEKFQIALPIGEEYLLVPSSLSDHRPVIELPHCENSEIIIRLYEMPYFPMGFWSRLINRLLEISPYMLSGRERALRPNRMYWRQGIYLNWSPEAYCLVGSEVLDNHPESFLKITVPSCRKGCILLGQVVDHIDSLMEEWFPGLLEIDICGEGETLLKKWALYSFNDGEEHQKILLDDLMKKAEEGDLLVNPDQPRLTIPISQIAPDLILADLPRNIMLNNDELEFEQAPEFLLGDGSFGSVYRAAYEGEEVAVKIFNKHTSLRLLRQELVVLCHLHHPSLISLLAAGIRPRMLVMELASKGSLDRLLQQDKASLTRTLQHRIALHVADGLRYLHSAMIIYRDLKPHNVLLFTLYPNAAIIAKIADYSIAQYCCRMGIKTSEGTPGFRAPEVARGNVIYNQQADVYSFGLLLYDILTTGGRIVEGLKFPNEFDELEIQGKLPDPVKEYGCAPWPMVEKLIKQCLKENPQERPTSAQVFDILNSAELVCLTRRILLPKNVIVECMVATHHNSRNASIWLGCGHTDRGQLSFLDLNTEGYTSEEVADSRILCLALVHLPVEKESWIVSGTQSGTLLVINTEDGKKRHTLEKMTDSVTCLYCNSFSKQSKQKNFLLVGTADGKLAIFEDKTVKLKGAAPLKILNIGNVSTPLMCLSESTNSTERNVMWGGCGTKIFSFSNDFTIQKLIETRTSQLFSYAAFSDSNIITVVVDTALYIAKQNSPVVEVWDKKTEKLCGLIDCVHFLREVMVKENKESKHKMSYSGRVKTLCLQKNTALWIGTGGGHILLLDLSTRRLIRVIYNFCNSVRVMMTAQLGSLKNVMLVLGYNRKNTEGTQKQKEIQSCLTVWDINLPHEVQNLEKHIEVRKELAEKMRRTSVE

On to `CC(Sc1ccc2nnc(-c3cccs3)n2n1)C(=O)O` (centres unmarked) [Example 36, 2-((3-(thiophen-2-yl)-[1,2,4]triazolo[4,3-b]pyridazin-6-yl)thio)propanoic acid], for which the IC50 lay within 0.1 to 1 µM.
Next, `CCC(Sc1ccc2nnc(-c3cccc(F)c3)n2n1)C(=O)N1CCCCC1` (centres unmarked) [Example 97, 2-((3-(3-fluorophenyl)-[1,2,4]triazolo[4,3-b]pyridazin-6-yl)thio)-1-(piperidin-1-yl)butan-1-one]: 0.1 to 1 µM.
As to `O=C(O)CSc1ccc2nnc(-c3nccs3)n2n1` [Example 42, 2-((3-(thiazol-2-yl)-[1,2,4]triazolo[4,3-b]pyridazin-6-yl)thio)acetic acid], the IC50 was no less than 5 µM.
Regarding `CCC(Sc1ccc2nnc(-c3cccs3)n2n1)C(=O)NCc1cccs1` (centres unmarked) [Example 48, 2-((3-(thiophen-2-yl)-[1,2,4]triazolo[4,3-b]pyridazin-6-yl)thio)-N-(thiophen-2-ylmethyl)butanamide], the IC50 was in the range of 0.1 to 1 µM.
Next, `CC(Sc1ccc2nnc(-c3ccn[nH]3)n2n1)C(=O)N1CCCCC1` (centres unmarked) [Example 115, 2-((3-(1H-pyrazol-5-yl)-[1,2,4]triazolo[4,3-b]pyridazin-6-yl)thio)-1-(piperidin-1-yl)propan-1-one]: 0.1 to 1 µM; `CCC(Sc1ccc2nnc(-c3ccccc3OC)n2n1)C(=O)N1CCCCC1` (centres unmarked) [Example 70, 2-((3-(2-methoxyphenyl)-[1,2,4]triazolo[4,3-b]pyridazin-6-yl)thio)-1-(piperidin-1-yl)butan-1-one]: no less than 5 µM.
Next, `O=C(O)CSc1ccc2nnc(-c3csc4ccccc34)n2n1` [Example 38, 2-((3-(benzo[b]thiophen-3-yl)-[1,2,4]triazolo[4,3-b]pyridazin-6-yl)thio)acetic acid]: no less than 5 µM; `CCC(Sc1ccc2nnc(-c3cccs3)n2n1)C(=O)N1CCN(C)CC1` (centres unmarked) [Example 58, 1-(4-methylpiperazin-1-yl)-2-((3-(thiophen-2-yl)-[1,2,4]triazolo[4,3-b]pyridazin-6-yl)thio)butan-1-one]: no less than 5 µM.
Next, `CCCN(CCC)C(=O)C(C)Sc1ccc2nnc(-c3cccs3)n2n1` (centres unmarked) [Example 123, N,N-dipropyl-2-((3-(thiophen-2-yl)-[1,2,4]triazolo[4,3-b]pyridazin-6-yl)thio)propanamide]: 1 to 5 µM; `CCC(Sc1ccc2nnc(-c3ccccc3)n2n1)C(=O)N1CCCCC1` (centres unmarked) [Example 106, 2-((3-phenyl-[1,2,4]triazolo[4,3-b]pyridazin-6-yl)thio)-1-(piperidin-1-yl)butan-1-one]: 0.1 to 1 µM; `CCC(Sc1ccc2nnc(-c3ccc(Cl)s3)n2n1)C(=O)N1CCCCC1` (centres unmarked) [Example 62, 2-((3-(5-chlorothiophen-2-yl)-[1,2,4]triazolo[4,3-b]pyridazin-6-yl)thio)-1-(piperidin-1-yl)butan-1-one]: 0.1 to 1 µM.
`CCC(Sc1ccc2nnc(-c3cccs3)n2n1)C(=O)N1CCCCC1C` (centres unmarked) [Example 104, 1-(2-methylpiperidin-1-yl)-2-((3-(thiophen-2-yl)-[1,2,4]triazolo[4,3-b]pyridazin-6-yl)thio)butan-1-one]: the IC50 fell in the range of 0.1 to 1 µM.
`CCC(Sc1ccc2nnc(-c3nccs3)n2n1)C(=O)N1CCCCC1` (centres unmarked) [Example 60, 1-(piperidin-1-yl)-2-((3-(thiazol-2-yl)-[1,2,4]triazolo[4,3-b]pyridazin-6-yl)thio)butan-1-one]: the IC50 was 0.1 to 1 µM.
Next, `NC(=O)CSc1ccc2nnc(-c3ccco3)n2n1` [Example 26, 2-((3-(furan-2-yl)-[1,2,4]triazolo[4,3-b]pyridazin-6-yl)thio)acetamide]: 0.1 to 1 µM; `NC(=O)CSc1ccc2nnc(-c3nccs3)n2n1` [Example 37, 2-((3-(thiazol-2-yl)-[1,2,4]triazolo[4,3-b]pyridazin-6-yl)thio)acetamide]: no less than 5 µM; `CCC(Sc1ccc2nnc(-c3ccc(F)c(F)c3)n2n1)C(N)=O` (centres unmarked) [Example 79, 2-((3-(3,4-difluorophenyl)-[1,2,4]triazolo[4,3-b]pyridazin-6-yl)thio)butanamide]: 1 to 5 µM.
Next, `O=C(CSc1ccc2nnc(-c3cccs3)n2n1)N1CCCC1` [Example 21, 1-(pyrrolidin-1-yl)-2-((3-(thiophen-2-yl)-[1,2,4]triazolo[4,3-b]pyridazin-6-yl)thio)ethanone]: 0.1 to 1 µM.
With `CCC(Sc1ccc2nnc(-c3ccc(F)c(F)c3)n2n1)C(=O)O` (centres unmarked) [Example 54, 2-((3-(3,4-difluorophenyl)-[1,2,4]triazolo[4,3-b]pyridazin-6-yl)thio)butanoic acid], the IC50 lay in the range of 0.1 to 1 µM.
Regarding `CCOC(=O)C(CC)Oc1ccc2nnc(-c3cccs3)n2n1` (centres unmarked) [Example 82, ethyl 2-((3-(thiophen-2-yl)-[1,2,4]triazolo[4,3-b]pyridazin-6-yl)oxy)butanoate], the IC50 was no less than 5 µM.
Next, `c1csc(-c2nnc3ccc(N4CCCCC4)nn23)c1` [Example 20, 6-(piperidin-1-yl)-3-(thiophen-2-yl)-[1,2,4]triazolo[4,3-b]pyridazine]: no less than 5 µM.
Next, `Cc1scc(-c2nnc3ccc(SCC(N)=O)nn23)c1-c1ccccc1` [Example 40, 2-((3-(5-methyl-4-phenylthiophen-3-yl)-[1,2,4]triazolo[4,3-b]pyridazin-6-yl)thio)acetamide]: no less than 5 µM; `Cc1ccc(-c2nnc3ccc(SCC(=O)N4CCCC4)nn23)cc1` [Example 25, 1-(pyrrolidin-1-yl)-2-((3-(p-tolyl)-[1,2,4]triazolo[4,3-b]pyridazin-6-yl)thio)ethanone]: 1 to 5 µM; `CCC(Sc1ccc2nnc(-c3ccc(Cl)s3)n2n1)C(=O)N1CCCC1` (centres unmarked) [Example 63, 2-((3-(5-chlorothiophen-2-yl)-[1,2,4]triazolo[4,3-b]pyridazin-6-yl)thio)-1-(pyrrolidin-1-yl)butan-1-one]: 0.1 to 1 µM.
Next, `CC(Sc1ccc2nnc(-c3nccs3)n2n1)C(=O)N1CCC1` (centres unmarked) [Example 126, 1-(azetidin-1-yl)-2-((3-(thiazol-2-yl)-[1,2,4]triazolo[4,3-b]pyridazin-6-yl)thio)propan-1-one]: 0.1 to 1 µM.
Turning to `Cc1ccc(-c2nnc3ccc(SCC(=O)N4CCCCC4)nn23)s1` [Example 57, 2-((3-(5-methylthiophen-2-yl)-[1,2,4]triazolo[4,3-b]pyridazin-6-yl)thio)-1-(piperidin-1-yl)ethanone], the IC50 was in the range of 1 to 5 µM.
Next, `CCC(Sc1ccc2nnc(-c3ccc(C)s3)n2n1)C(=O)O` (centres unmarked) [Example 89, 2-((3-(5-methylthiophen-2-yl)-[1,2,4]triazolo[4,3-b]pyridazin-6-yl)thio)butanoic acid]: 0.1 to 1 µM.
Next, `CCC(Oc1ccc2nnc(-c3cccs3)n2n1)C(N)=O` (centres unmarked) [Example 84, 2-((3-(thiophen-2-yl)-[1,2,4]triazolo[4,3-b]pyridazin-6-yl)oxy)butanamide]: no less than 5 µM; `CCC(Sc1ccc2nnc(-c3cccs3)n2n1)C(=O)N1CCCCCC1` (centres unmarked) [Example 50, 1-(azepan-1-yl)-2-((3-(thiophen-2-yl)-[1,2,4]triazolo[4,3-b]pyridazin-6-yl)thio)butan-1-one]: no less than 5 µM; `CCC(Sc1ccc2nnc(-c3cccc(OC)c3)n2n1)C(=O)N1CCCCC1` (centres unmarked) [Example 73, 2-((3-(3-methoxyphenyl)-[1,2,4]triazolo[4,3-b]pyridazin-6-yl)thio)-1-(piperidin-1-yl)butan-1-one]: 0.1 to 1 µM.
